# In patent publication US7288273B1, “Gallotannins and ellagitannins as regulators of cytokine release” (The Penn State Research Foundation, priority 2000, dated 2007):
# Tests used:
# [1] = system: IL-1β secretion from h-PBMC's; assay: IL-1β release from h-PBMC's, ELISA; assay type: cell-based, human; conditions: h-PBMC's 2nd subject, ± SD
# Experimental: (§1) Authentic samples of agrimoniin and coriariin A were supplied by Professor Yoshida (Okayama University, Japan). Dimeric gallotannin (analog of coriariin A) and β-D-PGG were synthesized as described. LPS (E. coli 055:B5 phenol extract, MW range 50-100 KD). Ficoll-Histopaque (ρ=1.077 g/mL), Fetal Bovine Serum, sterile, hybridoma tested (FCS), gentamicin 10 mg/mL. L-glutamine, 200 mM. Dextran B-512 Leuconostoc Av M.W. 580000, and Trypan Blue stain were purchased from Sigma. Hanks Buffer Saline Solution 1×, with phenol red, mediatech (HBSS) and RPMI 1640 1×, mediatech were purchased from Fisher Scientific, Human IL-1β and TNF-α Enzyme Linked ImmunoSorbent Assay (ELISA) kits were purchased from R and D Systems, Minneapolis, Minn. Fresh heparinized blood was obtained from health human subjects (ages 20-34).
# (§2) Dose-Response Data: General Procedure. H-PBMC's were isolated by reported procedures (10. 18). The cells counted and the viability was determined by Trypan Blue exclusion (typically, viability exceeded 95%). The concentration of the cells in the 0.5 mL wells was adjusted to 1×10^6 cells/well by diluting with the required amount of RPMI.
# (§3) The appropriate amount of a tannin (or LPS) stock solution in HBSS was added to each well to furnish the concentration values reported in the Figures. […] The culture plates were incubated in a 5% CO2, 37° C. humidified incubator for the indicated time. At the end of the time interval, 450 μL of the culture supernatant from each well was harvested, after centrifugation at 400 g, 25° C., 10 min. with brake, and stored at −78° C. pending ELISA analysis for the cytokine(s). The ELISA assays were conducted per the manufacturer's instructions using standard calibration curves to calculate cytokine concentration from observed absorbance readings. The cytokine values reported are averages of three runs±SE.
# (§4) The dimeric antitumor ellagitannins coriariin A and agrimoniin, the monomeric gallotannin β-D-pentagalloylglucose (β-D-PGG) and the dimeric gallotannin of this invention were all examined in this study. The dimeric gallotannin is an analog of coriariin A and is identical to the parent ellagitannin except that the galloyl rings at O(4) and O(6) are not joined in a hexahydroxydiphenoyl (HHDP) linkage. h-PBMC's were incubated with the compound under investigation for the indicated length of time and the amounts of both IL-1β and, independently, TNF-α, present in the culture supernatants was determined using commercially available ELISA kits. In each case, LPS was used as a positive control while untreated cells were reserved as negative controls.
# In the third study, compounds 17c-20c were examined for their ability to induce secretion of IL-1β from h-PBMC's (FIG. 16). Recall from the introduction that the cytokine IL-1β is also released in an LPS-stimulated septic shock response. The compounds that cause very little secretion of IL-1β or none at all will be the optimal compounds for potential septic shock therapeutics because they will be less likely themselves to induce a septic shock response.
# [2] = system: TNF-α secretion from h-PBMC's; assay: TNF-α release from h-PBMC's, ELISA; assay type: cell-based, human; conditions: for TNF-α secreted in the presence of 17c-21c: 24 hours, ± SD
# Experimental: as §1, §2, §3, §4
# In the first study, the induction of TNF-α secretion from h-PBMC's in the presence of each compound 17c-21c was measured. The h-PBMC's were incubated with each compound for 24 hours. The TNF-α levels in the cell culture supernatant were assayed by Enzyme Linked ImmunoSorbant Assay (ELISA). The data point for each assay represent the mean of triplicate measurements. […] (See FIG. 11).
# [3] = system: LPS induced TNF-α secretion from h-PBMC's; assay: Inhibition of LPS induced TNF-α secretion from h-PBMC's; assay type: cell-based, human; conditions: LPS 5 μg/mL; for TNF-α secreted in the presence of LPS and 17c-20c: compound 10 μg/mL added after 45 minutes, h-PBMC's 3rd subject, ± SD
# Experimental: In the second study, the ability of compounds 17c-20c to inhibit LPS induced TNF-α production in h-PBMC's was investigated using four assays. The first experiment was a kinetics run in which the h-PBMC's were initially incubated with a fixed concentration of LPS (5 μg/mL) for 45 minutes. This incubation period was followed by addition of a fixed concentration (10 μg/mL) of compounds 17c-20c. The cells were harvested at varying intervals of time. […] The optimal time was determined by comparing the amount of TNF-α secreted by LPS alone to the amount of TNF-α secreted by LPS and substrate at each time point.
# The second assay determined the minimum amount of substrate required for inhibition. LPS (10 μg/mL) was incubated with h-PBMC's for 45 minutes followed by addition of 17c-20c at varying concentrations. The cell culture supernatant was harvested after 8 hours. The inherent variability in using cells from different subjects, or in the day of assay, made it difficult to compare overall effectiveness of inhibitors. Therefore, to more easily identify the concentration at which maximum inhibition occurs for a given compound, the TNF-α secretion was normalized by calculating a percent of maximum secretion value (based on LPS alone) (FIG. 13). […] The optimal concentration for inhibition varied between substrates, but the general dose response trend was the same. Overall, the maximum inhibition was 45% for 18c and 20c, and 25% for 19c.
# The third assay investigated the ability of 17c, 18c, and 20c to inhibit LPS induced TNF-α secretion using a smaller dosage of LPS (5 μg/mL) (FIG. 14). Again, the response was dose dependent. The maximum inhibition was 45% for 17c and 20c, and 35% for 18c.
# In the fourth assay the varying concentrations of substrates 17c-20c and LPS were added at the same time to determine the effect of addition sequence on the inhibition of TNF-α secretion (FIG. 15). The addition time seemed to make a difference in the overall dose response trend. However, maximum inhibition was the same as when the compounds were added 45 minutes after LPS addition (about 40% for each compound).
# Finally, in the last study, analogs 19c and 20c were again tested for inhibition LPS induced TNF-α secretion (FIG. 17). In this assay a smaller dose of LPS was used to determine if inhibition was greater when much lower doses of LPS were present. The substrates were added 45 minutes after LPS addition and the cells were harvested after 8 hours. It doesn't appear as though the substrates are better inhibitors when smaller amounts of LPS are used, again perhaps reflecting receptor saturation with LPS at this dosage.
# sarcoma-180 tumors = conditions: mice infected with sarcoma-180 tumors; cited from earlier work
molecule,measurement,setting,value
"O=C(OC[C@H]1O[C@@H](OC(=O)c2ccc(C(=O)O[C@@H]3O[C@H](COC(=O)c4cc(O)c(O)c(O)c4)[C@@H](OC(=O)c4cc(O)c(O)c(O)c4)[C@H](OC(=O)c4cc(O)c(O)c(O)c4)[C@H]3OC(=O)c3cc(O)c(O)c(O)c3)cc2)[C@H](OC(=O)c2cc(O)c(O)c(O)c2)[C@@H](OC(=O)c2cc(O)c(O)c(O)c2)[C@@H]1OC(=O)c1cc(O)c(O)c(O)c1)c1cc(O)c(O)c(O)c1 [Compound 17c, 1,1′-O-2,2′,3,3′,4,4′,6,6′-Tetrakis(3,4,5-trihydroxybenzoyl)-β,β′-D,D′-glucopyranosylterephthalate]",IL-1β secreted in the presence of 17c-20c,[1]; compound 0.6 μM,0 pg/mL
same,IL-1β secreted in the presence of 17c-20c,[1]; compound 2.9 μM,0 pg/mL
same,IL-1β secreted in the presence of 17c-20c,[1]; compound 5.9 μM,3.2 ± 3.6 pg/mL
same,IL-1β secreted in the presence of 17c-20c,[1]; compound 11.8 μM,329.7 ± 443.0 pg/mL
same,IL-1β secreted in the presence of 17c-20c,[1]; compound 17.6 μM,140.5 ± 195.6 pg/mL
same,IL-1β secreted in the presence of 17c-20c,[1]; compound 23.5 μM,630.6 ± 283.1 pg/mL
same,IL-1β secreted in the presence of 17c-20c,[1]; compound 29.4 μM,690.1 ± 101.0 pg/mL
same,TNF-α secreted in the presence of 17c-21c,[2]; compound 0.6 μM,0 pg/mL
same,TNF-α secreted in the presence of 17c-21c,[2]; compound 2.9 μM,0 pg/mL
same,TNF-α secreted in the presence of 17c-21c,[2]; compound 5.9 μM,0 pg/mL
same,TNF-α secreted in the presence of 17c-21c,[2]; compound 11.8 μM,0.26 ± 0.37 pg/mL
same,TNF-α secreted in the presence of 17c-21c,[2]; compound 17.6 μM,0 pg/mL
same,TNF-α secreted in the presence of 17c-21c,[2]; compound 23.5 μM,0.26 ± 0.37 pg/mL
same,TNF-α secreted in the presence of 17c-21c,[2]; compound 29.4 μM,2.5 ± 3.5 pg/mL
same,TNF-α secreted in the presence of LPS and 17c-20c,[3]; time 1 h,511.2 ± 288.3 pg/mL
same,TNF-α secreted in the presence of LPS and 17c-20c,[3]; time 4 h,1896.3 ± 140.9 pg/mL
same,TNF-α secreted in the presence of LPS and 17c-20c,[3]; time 8 h,2477.0 ± 148.2 pg/mL
same,TNF-α secreted in the presence of LPS and 17c-20c,[3]; time 12 h,2574.4 ± 459.9 pg/mL
same,TNF-α secreted in the presence of LPS and 17c-20c,[3]; time 16 h,1811.6 ± 352.9 pg/mL
same,TNF-α secreted in the presence of LPS and 17c-20c,[3]; time 24 h,2266.1 ± 353.3 pg/mL
same,maximum inhibition of LPS induced TNF-α secretion,[3]; 3rd subject,45%
"1,1′-2,2′,3,3′,4,4′,6,6′-Tetrakis(3,4,5-trihyroxybenzoyl)-β,β′-D,D′-glucopyranosyl-(2,3′-oxy-di-benzoate) [Compound 21c]","TNF-α secretion from h-PBMC's, in words",[2],significant amount of TNF-α secretion
same,TNF-α secreted in the presence of 17c-21c,[2]; compound 0.6 μM,140.7 ± 50.1 pg/mL
same,TNF-α secreted in the presence of 17c-21c,[2]; compound 2.8 μM,80.3 ± 38.1 pg/mL
same,TNF-α secreted in the presence of 17c-21c,[2]; compound 5.6 μM,61.9 ± 11.7 pg/mL
same,TNF-α secreted in the presence of 17c-21c,[2]; compound 11.2 μM,96.2 ± 8.9 pg/mL
same,TNF-α secreted in the presence of 17c-21c,[2]; compound 16.8 μM,379.3 ± 156.6 pg/mL
same,TNF-α secreted in the presence of 17c-21c,[2]; compound 22.3 μM,618.0 ± 182.0 pg/mL
same,TNF-α secreted in the presence of 17c-21c,[2]; compound 27.9 μM,899.0 ± 368.4 pg/mL
O=C(O[C@H]1[C@@H]2OC(=O)c3cc(O)c(O)c(O)c3-c3c(cc(O)c(O)c3O)C(=O)OC[C@H]2OC(O)[C@@H]1OC(=O)c1cc(O)c(O)c(O)c1)c1cc(O)c(O)c(O)c1 (stereo partly drawn) [tellimagrandin I],"antitumor effect, in words",sarcoma-180 tumors,much less effective antitumor agents
"O=C(OC1O[C@@H]2COC(=O)c3cc(O)c(O)c(O)c3-c3c(cc(O)c(O)c3O)C(=O)O[C@H]2[C@H](OC(=O)c2cc(O)c(O)c(O)c2)[C@H]1OC(=O)c1cc(O)c(O)c(O)c1)c1cc(O)c(O)c(O)c1 (stereo partly drawn) [Compound 2, tellimagrandin II]","antitumor effect, in words",sarcoma-180 tumors,much less effective antitumor agents
gemin A,"antitumor effect, in words",sarcoma-180 tumors,induce tumor regression
O=C1OC[C@H]2OC(O)[C@@H]3OC(=O)c4cc(O)c(O)c(O)c4-c4c(cc(O)c(O)c4O)C(=O)O[C@H]3[C@@H]2OC(=O)c2cc(O)c(O)c(O)c2-c2c1cc(O)c(O)c2O (stereo partly drawn) [pedunculagin],"antitumor effect, in words",sarcoma-180 tumors,much less effective antitumor agents
